Data as given in patent US20060074073A1, “Therapeutic combinations comprising poly (ADP-ribose) polymerases inhibitor” (AGOURON PHARMACEUTICALS, INC., priority 2004, published 2006).
Like-named read-outs stand apart in the source and are kept apart here. Marks after values point to notes of the source that are not given here.

What was measured:
[1] = tested on: SW620 human colon carcinoma xenograft; assay: In vivo antitumor efficacy with temozolomide, SW620 xenograft; details: SW620
[2] = Plasma and tumor levels by HPLC/MS in mice bearing SW620 xenograft; format: in vivo; details: for concentration at 0.5 h / concentration at 6 h / concentration at 24 h: mouse, intraperitoneal
Procedure: In a parallel study plasma and tumor levels of the compound of formula 1 were measured by an HPLC/MS assay. In addition the degree of inhibition of tumor PARP catalytic activity was assessed using P^32-NAD incorporation into poly-ADP-ribose polymer in homogenates from SW620 tumors of treated animals. […] PARP catalytic activity was inhibited by 50% at 6 h and by 25% at 24 h.

PARP [3] = assay: Inhibition of cellular NAD consumption in mouse peripheral blood lymphocytes after PARP activation; format: cell-based; details: PARP activated by MNNG, hydrogen peroxide or gamma irradiation, data not shown
Source text: (§1) After DNA damage, cellular NAD is rapidly incorporated into poly-ADP-ribose polymer.

[4] = IV pharmacokinetics, summary over all species; parameters: species or system CD-1 mice, Wistar rats, Beagle dogs, and cynomolgus monkeys; details: CD-1 (mouse), Wistar (rat), Beagle (dog), cynomolgus monkey, in vivo, IV dosing
Source text: Each of the dose treatment groups was split into 2 cohort groups of 4 mice. The reason for cohort blood sampling is due to the blood volume limitations of the mouse species. Blood was drawn from each cohort every other pharmacokinetic sampling time. […] Three mice per dose group were euthanized at each of the collection time points. […] Blood from each rat was collected for each time point.

LoVo xenografts = assay: In vivo antitumor efficacy with irinotecan, LoVo xenograft; parameters: species or system mice; details: irinotecan 25 mg/kg i.p. + 0.5 mg/kg i.p. (glucuronate salt), once weekly × 3
Source text: In no combination study was antagonism observed.

PARP [5] = assay: Tumor PARP catalytic activity, 32P-NAD incorporation in SW620 tumor homogenates of treated animals; format: in vivo, mice
Procedure: Tumours were excised and were snap frozen in liquid nitrogen and stored at −80° C. until homogenised for analysis. The specimen was defrosted on ice and the wet weight documented. The tissue was homogenised using a Pro 2000 instrument (Pro Scientific Inc, Monroe, Conn., USA) in 3 volumes (i.e. 1 mg plus 3 μl isotonic buffer −7 mM Hepes, 26 mM KCl, 0.1 mM dextran, 0.4 mM EGTA, 0.5 mM MgCl2, 45 mM sucrose, pH 7.8), giving a homogenate with an overall dilution of 1 in 4. The homogenate was kept on ice throughout the process, and homogenisation was performed in 10 second bursts to prevent undue warming of the sample. Prior to assay the samples were further diluted with isotonic buffer where necessary to give a final dilution of 1 in 40 for [^32P]NAD incorporation assay or 1 in 1000 for immunoblot aaasy.
Briefly, cells were suspended in hypotonic buffer (9 mM HEPES pH 7.8, 4.5% (v/v) dextran, 4.5 mM MgCl2 and 5 mM DTT) at 1.5×10^7/ml on ice for 30 minutes then 9 vol of isotonic buffer (40 mM HEPES pH 7.8, 130 mM KCl, 4% (v/v) dextran, 2 mM EGTA, 2.3 mM MgCl2, 225 mM sucrose and 2.5 mM DTT) was added. The reaction was started by adding 300 μl cells to 100 μl 300 μM NAD^+ containing [^32P]-NAD^+ (Amersham, UK), and terminated by the addition of 2 ml ice cold 10% (w/v) TCA+10% (w/v) sodium pyrophosphate. After 30 min on ice the precipitated ^32P—labelled ADP-ribose polymers were filtered on Whatman GC/C filters (Whatman Intemational Ltd, Kent, UK), washed 5 times with 1% (v/v) TCA/1% (v/v) sodium pyrophosphate, dried and counted. PARP inhibitory IC50 values were calculated from computer-fitted curves (GraphPad Software, Inc., San Diego, Calif.).
Tumour homogenates were assayed in a similar manner; however, the homogenisation process introduces sufficient DNA damage to maximally stimulate PARP activity and oligonucleotide was not therefore required. Results were expressed in terms of pmol PAR former per mg tumour.
Preparation of Tumour/Tissue Samples • 1. The frozen tumour samples are weighed. • 2. 3 volumes (i.e. 3 μl solution added for each 1 mg tissue) of isotonic buffer plus DTT is added to the tumour sample. This is stored on ice until and during homogenisation. • 3. The sample is homogenised on ice within a Class II cabinet for 10-second bursts until no detectable macroscopic pieces of tissue are visible. • 4. Sufficient volume of the homogenate is diluted 1 in 10 with isotonic buffer plus DTT to provide an overall dilution of 1 in 40 from the original sample. A final volume of 3 ml is sufficient for triplicate sampling and a subsequent protein assay. • 5. The diluted homogenate is stored on ice and assayed within one hour as below.
PARP Assay of Tumour/Tissue Samples • 1. ^32P 600 μM NAD solution is prepared fresh on the day of experiment as detailed above. Oligonucleotide stock is removed from storage and defrosted. • 2. Water bath is warmed to 26° C. and set to agitate at 70 oscillations per minute.
3. Reaction test tubes are set up as per table A for the QC samples and as per table B for the homogenate.
• 4. Each QC sample is assayed in triplicate, with T0, +oligo and −oligo samples ×3. (Total of 9 tubes per sample, if low cell counts −oligo samples are omitted.) Homogenates are also assayed in triplicate, with T0 and reaction samples ×3. (Total 6 tubes per sample). • 5. 2 ml ice cold 10% TCA+10% NaPPi is added to the T0 tubes prior to addition of homogenate or cells, to correct for non-specific binding of radio-label to the filter. • 6. Reaction test tubes homogenates and QC cells are warmed in the water bath to 26° C. for 7 minutes. • 7. Each preparation is vortexed briefly and the reaction is started by adding 300 μl of this to each reaction tube. • 8. The reaction is stopped exactly 6 minutes after addition of homogenate by adding 2 ml of ice cold 10% TCA+10% NaPPi and vortexing. • 9. The tube is then incubated on ice for at least one hour prior to filtration. • 10. […]

PARP [6] = assay: Inhibition of cellular NAD consumption in P388 mouse leukemia cells after PARP activation; format: cell-based; details: PARP activated by MNNG, hydrogen peroxide or gamma irradiation, data not shown
Source text: as §1

CNCc1ccc(-c2[nH]c3cc(F)cc4c3c2CCNC4=O)cc1 [compound of formula 1, 8-fluoro-2-{4-[(methylamino)methyl]phenyl}-1,3,4,5-tetrahydro-6H-azepino[5,4,3-cd]indol-6-one]
Enhancement (%) ([1]; 0.1 mg/kg i.p. glucuronate salt + temozolomide 68 mg/kg p.o., QD×5): 28% | Enhancement (%) ([1]; 1.0 mg/kg i.p. glucuronate salt + temozolomide 68 mg/kg p.o., QD×5): 100% | Enhancement (%) ([1]; temozolomide 200 mg/kg oral + compound 0.1 mg/kg i.p., single dose): 50^e % | Enhancement (%) ([1]; temozolomide 200 mg/kg oral + compound 0.3 mg/kg i.p., single dose): 80^e % | Enhancement (%) ([1]; temozolomide 200 mg/kg oral + compound 1 mg/kg i.p., single dose): 107^e % | Enhancement (%) ([1]; temozolomide 200 mg/kg oral + compound 5 mg/kg i.p., single dose): 111^e,f % | Tumor compound of formula 1 ([2]; 1.0 mg/kg i.p. as phosphate salt, 24 h): BLQ^c | plasma concentrations ([2]; 1.0 mg/kg, 6 hours): barely detectable | Plasma compound of formula 1 ([2]; 10 mg/kg i.p. as phosphate salt, 0.5 h): 1867 + 102 ng/mL | plasma concentrations ([2]; 10 mg/kg, 24 h): barely detectable | tumor levels ([2]; 10 mg/kg, all times up to 24 h): > 200 ng/mL | concentration at 0.5 h ([2]; plasma, 1 mg/kg, Plasma compound of formula 1, 1.0 mg/kg i.p. as phosphate salt, 0.5 h): 107 ± 32.3 ng/mL | concentration at 6 h ([2]; plasma, 1 mg/kg, Plasma compound of formula 1, 1.0 mg/kg i.p. as phosphate salt): 6.64 ± 1.55 ng/mL | concentration at 24 h ([2]; plasma, 1 mg/kg, Plasma compound of formula 1, 1.0 mg/kg i.p. as phosphate salt, 24 h): 1.85 ± 0.14 ng/mL | concentration at 6 h ([2]; plasma, 10 mg/kg, Plasma compound of formula 1, 10 mg/kg i.p. as phosphate salt): 64.4 ± 11 ng/mL | concentration at 24 h ([2]; plasma, 10 mg/kg, Plasma compound of formula 1, 10 mg/kg i.p. as phosphate salt, 24 h): 2.34 ± 0.33 ng/mL | concentration at 6 h ([2]; plasma, 10 mg/kg, read-out: plasma concentrations): 30 ng/mL | concentration at 0.5 h ([2]; tumor, 1 mg/kg, Tumor compound of formula 1, 1.0 mg/kg i.p. as phosphate salt, 0.5 h): 98.3 ± 25.2 ng/g | concentration at 6 h ([2]; tumor, 1 mg/kg, Tumor compound of formula 1, 1.0 mg/kg i.p. as phosphate salt): 49.5 ± 2.12 ng/g | concentration at 0.5 h ([2]; tumor, 10 mg/kg, Tumor compound of formula 1, 10 mg/kg i.p. as phosphate salt, 0.5 h): 767 ± 55.6 ng/g | concentration at 6 h ([2]; tumor, 10 mg/kg, Tumor compound of formula 1, 10 mg/kg i.p. as phosphate salt): 523 ± 37.3 ng/g | concentration at 24 h ([2]; tumor, 10 mg/kg, Tumor compound of formula 1, 10 mg/kg i.p. as phosphate salt, 24 h): 167 ± 54.2 ng/g | inhibition of PARP catalytic activity (cellular NAD consumption) (PARP [3]): inhibits PARP catalytic activity | clearance [4]: 34 to 136 mL/min/kg | half-life ([4]; read-out: terminal half-life): 2 to 5 h | Vd ([4]; read-out: volume of distribution): 7 to 15 L/kg | Enhancement (%) (LoVo xenografts): 86% | PARP catalytic activity inhibited (PARP [5]; 1.0 mg/kg, 6 h): 50% | PARP catalytic activity inhibited (PARP [5]; 1.0 mg/kg, 24 h): 25% | PARP catalytic activity inhibited (PARP [5]; 10 mg/kg, 6 h): 90% | PARP catalytic activity inhibited (PARP [5]; 10 mg/kg, 24 h): 75% | inhibition of PARP catalytic activity (cellular NAD consumption) (PARP [6]): inhibits PARP catalytic activity
